Test results: US20120282167A1, “METHOD FOR PREDICTING THE SENSITIVITY OF A TUMOR TO AN EPIGENETIC TREATMENT” (INSTITUT CURIE, priority 2009, published 2012)

How the values were obtained:
Assay type in all cases: cell-based, human
[1] = system: genes located in the regions of downregulation in cell line CL1207; experiment: Re-expression of genes in the regions of downregulation, RT-qPCR, CL1207 cell line; settings: for re-expression of genes in downregulated regions 2-7, 3-2, 3-5, 7-2, 14-1, 19-3A and 19-3B: 300 nM TSA 16 hours, 5 μM 5-aza-deoxycytidine 72 hours, or 5 μM 5-aza-deoxycytidine 48 hours followed by 300 nM TSA 10 hours; for re-expression of genes in regions 6-7 and 17-7: same treatments, effect if fold-change >1.5
Excerpt: FIG. 3: […] The treatments were scored as having an effect (resulting in re-expression) if the fold-change between treated and non-treated was greater than 1.5. […] With both methods, all samples were run in duplicate. For all experiments involving […] and CL1207 both methods were used.

[2] = system: cell lines with the RES phenotype (TCCSUP, HT1376, JMSU1 and CL1207); experiment: Trichostatin A sensitivity assay (living cells counted after 72 hours, treated versus non-treated); settings: on average for TCCSUP, doses 100 nM to 500 nM, read-out: IC50 (half maximal inhibitory concentration), growth inhibition
Experimental: (§1) FIG. 13: Cell viability after treatment with various doses of trichostatin A in bladder cancer cell lines with or without the RES phenotype and NHU cells. The percentage of surviving treated versus non-treated cells as a function of TSA concentration for various bladder cancer (MGHU3, RT112, T24, TCCSUP, HT1376, JMSU1, CL1207) and normal (NHU) cell lines is indicated. The number of cells surviving post treatment with TSA for 72 hours was counted and compared to control (no treatment) cultures. Cell lines with the RES phenotype are indicated with full symbols (TCCSUP, HT1376, JMSU1, CL1207) whereas cell lines without the RES phenotype (NHU, MGHU3, RT112, T24) are indicated with empty symbols. The error bars indicate the mean variation between two independent experiments.
(§2) All bladder cancer and NHU cell lines were seeded in 12-well plates at a density of 5×10^4 cells/well. Cultures were treated the next day, in duplicate, with various doses of trichostatin A, from 100 nM to 500 nM, with two wells left untreated. After 72 hours, the living cells in each treated well were harvested and counted and compared to the numbers of cells in the non-treated wells. The resulting ratio was used to assess sensitivity to trichostatin A.
(§3) The RES phenotype was characterized by strong histone K9 and K27 methylation and K9 hypoacetylation, but extremely rare DNA methylation. […]

[3] = system: cell lines without the RES phenotype (MGHU3, RT112 and T24) and NHU cells; experiment: as above; settings: doses 100 nM to 500 nM, read-out: IC50 (half maximal inhibitory concentration), growth inhibition
Experimental: as §1, §2, §3

[4] = system: genes within the seven epigenetic regions in TCCSUP, HT1376 and JMSU1 cells; experiment: Re-expression of genes of the seven RES regions after TSA, RT-qPCR (TLDA), cell lines TCCSUP, HT1376 and JMSU1
Experimental: (§4) FIG. 10: Characterization of the regional epigenetic phenotype in bladder cancer cell lines. (a) Comparison of mRNA expression for genes in region 2-7 before and after treatment with TSA in bladder cancer cell lines and NHU cells; results obtained for the CL1207 cells (from FIG. 3) are also shown. Transcript values were measured by RT-qPCR using TLDA (see Materials and Methods in experimental section). The ratio between treated and non-treated cells is shown. Error bars represent the variation between the means of two independent experiments of TSA treatment. (b) Same comparison for region 3-2. (c) Same comparison for region 19-3A. (d) Summary of the effects of TSA treatment on all bladder cancer and NHU cell lines studied. Only groups of genes in which at least two genes were re-expressed after treatment are considered (see FIG. 11). (e) ChIP analysis in TCCSUP and RT112 cells for regions 2-7, 3-2 and 19-3A, with an antibody against trimethyl residues on lysine 9 of histone 3.
(§5) FIG. 11: Comparison of the mRNA levels of the genes in regions 3-5, 7-2, 14-1 and 19-3B in bladder cancer and normal cells before and after treatment with TSA. mRNA levels were assessed by RT-qPCR using TLDA (see Materials and Methods in experimental section). The ratio between treated versus non-treated cells is shown. Error bars represent the variation between two independent experiments. […]

[5] = system: H3K9me3, H3K27me3 and H3K9ac at gene promoters in CL1207 cells; experiment: Chromatin immunoprecipitation (ChIP) of histone modifications in CL1207 before and after TSA; settings: 300 nM TSA for 16 h
Excerpt: FIG. 5: Analyses of epigenetic modifications in regions 2-7 and 19-3A (a) Schematic map of region 2-7 (not to scale) with CpG islands, according to the UCSC browser. The number of CpG in each island is indicated. (b) DNA methylation analyses for region 2-7: bisulfite sequencing analyses for CpG 141 and CpG 39 covering a promoter region. In each case, T1207 DNA, CL1207 DNA, NHU DNA and SssI-methylated DNA (“Met. DNA”) were studied. Each row represents an individual clone, and each box (methylated in black, unmethylated in white) represents an individual CpG site. The curved arrows indicate the transcription start sites. (c) ChIP assays were performed for promoters in region 2-7 with antibodies against trimethyl H3K9 (left panel), trimethyl H3K27 (middle panel) and acetyl H3K9 (right panel). […] (d) Schematic map of region 19-3A with CpG islands. (e) ChIP analyses for region 19-3A as in (c).
FIG. 6: Analyses of epigenetic modifications in region 3-2. (a) Schematic map of region 3-2 (not to scale) with CpG islands, according to the UCSC browser. The number of CpGs in each island is indicated. (b) DNA methylation analyses for region 3-2: bisulfite sequencing analyses for the three CpGs covering a promoter region: CpG 74, 59 and 68. In each case, DNA from T1207, CL1207 and NHU and SssI-methylated DNA (“Met. DNA”) were studied. Each row represents an individual clone and each box represents an individual CpG site. A black box indicates methylation and a white box no methylation. The curved arrows indicate the transcription start sites. (c) Methylation analysis of DLEC1 promoter by bisulfite sequencing in five tumor samples showing downregulation of region 3-2: T195, T259, T447, T910 and T1448. […]
Chromatin immunoprecipitation (ChIP) assays were carried out in duplicate in three 150 cm^2 dishes for untreated CL1207, CL1207 treated with 300 nM TSA for 16 h, TCCSUP, RT112 and NHU cells. […] The amount of immunoprecipitated target was determined by real-time PCR, in duplicate, using the ABI PRISM 7900HT Sequence Detection System. […]

[6] = system: genes within the seven epigenetic regions in NHU, MGHU3, RT112 and T24 cells; experiment: Re-expression of genes of the seven RES regions after TSA, RT-qPCR (TLDA), NHU, MGHU3, RT112 and T24
Experimental: as §4, §5

[7] = most of the genes in all three regions

Nc1ncn([C@H]2C[C@H](O)[C@@H](CO)O2)c(=O)n1 [5-aza-deoxycytidine]
re-expression of genes in downregulated regions 2-7, 3-2, 3-5, 7-2, 14-1, 19-3A and 19-3B ([1]; effect if ratio >1.5): reexpression of most of the genes in seven regions
genes re-expressed after 5-aza-deoxycytidine treatment alone ([1]; BSN (3-5), SKAP2, HOXA4, HOXA5 (7-2), EFS, AP1G2 (14-1), 5 μM, 72 hours): re-expressed
re-expression of genes in regions 6-7 and 17-7 [1]: either to no re-expression or re-expression of only one isolated gene

Nc1ccccc1NC(=O)c1ccc(CNC(=O)OCc2cccnc2)cc1 [MS275]
gene re-expression in repressed regions on chromosome 3 (VILL to ACAA1) and 2 (HOXD8 to HOXD1) ([1]; compared with TSA, effect if ratio >1.5): enabled gene re-expression in the studied regions as well as did TSA

CC(/C=C/C(=O)NO)=C\[C@@H](C)C(=O)c1ccc(N(C)C)cc1 [TSA, trichostatin A]
IC50 [2]: 100 nM
IC50 [3]: 500 nM
re-expression of the regions in TCCSUP cell line ([4]; TCCSUP, TSA treatment): all regions were re-expressed
re-expression of genes within the seven epigenetic regions ([4]; second group: TCCSUP, HT1376 and JMSU1, 300 nM TSA 16 hours): gene re-expression was observed for most of the silenced regions after treatment
H3K9 and H3K27 trimethylation at promoters of BSN, HOXA1, DHRS2 and JAK3 (regions 3-5, 7-2, 14-1, 19-3B) [5]: these marks were decreased
levels of active mark (H3K9ac) at promoters, regions 2-7, 3-2 and 19-3A [5, 7]: increased the levels of the active mark
levels of inactive marks (H3K9me3, H3K27me3) at promoters, regions 2-7, 3-2 and 19-3A [5, 7]: decreased the levels of the inactive marks
re-expression of the regions in RT112 cells ([6]; RT112, TSA treatment): no region was re-expressed, except two genes in region 7-2
re-expression of genes within the seven epigenetic regions ([6]; first group: NHU, MGHU3, RT112 and T24, 300 nM TSA 16 hours): most of the genes were not re-expressed, except for a few isolated genes in some cell lines
re-expression of genes in downregulated regions 2-7, 3-2, 3-5, 7-2, 14-1, 19-3A and 19-3B ([1]; effect if ratio >1.5): reexpression of most of the genes in seven regions
re-expression of genes in regions 6-7 and 17-7 [1]: either to no re-expression or re-expression of only one isolated gene
